From ChEMBL document CHEMBL1201862, “PubChem BioAssay data set” (2004)
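Results reflect a 48-hour exposure of cells in 96-well plates to compound at five concentrations. Here, GI50 denotes the concentration required for 50% inhibition of growth.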 Calls of active or inactive are those of the source. Rule as the data show it: active = GI50 up to about 1.1 µM and inactive = higher. Peptide text beside a SMILES is read from it. * marks the point of attachment. Boc = CC(C)(C)OC(=O)*; OBn = c1ccc(CO*)cc1

Experiments:
Assay in all cases: NCI anticancer screen, dose series, 48 h
Malme-3M = system: Malme-3M
SK-OV-3 = system: SK-OV-3
IGROV-1 = system: IGROV-1
HCC 2998 = system: HCC 2998
LOX IMVI = system: LOX IMVI
OVCAR-8 = system: OVCAR-8
UO-31 = system: UO-31
OVCAR-3 = system: OVCAR-3
NCI-H226 = system: NCI-H226
KM12 = system: KM12
A498 = system: A498
HCT-15 = system: HCT-15
NCI-H23 = system: NCI-H23
EKVX = system: EKVX
A549 = system: A549
HOP-62 = system: HOP-62
NCI/ADR-RES = system: NCI/ADR-RES
CCRF-CEM = system: CCRF-CEM
NCI-H522 = system: NCI-H522
SF-539 = system: SF-539

| Compound | GI50 (Malme-3M) | GI50 (SK-OV-3) | GI50 (IGROV-1) | GI50 (HCC 2998) | GI50 (LOX IMVI) | GI50 (OVCAR-8) | GI50 (UO-31) | GI50 (OVCAR-3) | GI50 (NCI-H226) | GI50 (KM12) | GI50 (A498) | GI50 (HCT-15) [µM] | GI50 (NCI-H23) | GI50 (EKVX) | GI50 (A549) | GI50 (HOP-62) | GI50 (NCI/ADR-RES) | GI50 (CCRF-CEM) | GI50 (NCI-H522) | GI50 (SF-539) |
| --- | --- | --- | --- | --- | --- | --- | --- | --- | --- | --- | --- | --- | --- | --- | --- | --- | --- | --- | --- | --- |
| CN1CCN(c2nc3c(c(=O)n(C)c(=O)n3C)n2C)CC1 | > 100 µM (inactive) | > 100 µM (inactive) | > 100 µM (inactive) | > 100 µM (inactive) | > 100 µM (inactive) | > 100 µM (inactive) | > 100 µM (inactive) | > 100 µM (inactive) | > 100 µM (inactive) | > 100 µM (inactive) | > 100 µM (inactive) | > 100 | > 100 µM (inactive) | > 100 µM (inactive) | > 100 µM (inactive) | > 100 µM (inactive) | > 100 µM (inactive) | > 100 µM (inactive) | > 100 µM (inactive) | – |
| c1csc(-c2cc(-c3cccs3)c(-c3cccs3)s2)c1 | 62.2 µM (inactive) | > 100 µM (inactive) | > 100 µM (inactive) | 58.5 µM (inactive) | – | > 100 µM (inactive) | > 100 µM (inactive) | > 100 µM (inactive) | > 100 µM (inactive) | 46.5 µM (inactive) | > 100 µM (inactive) | 49.8 | 96.4 µM (inactive) | 55.8 µM (inactive) | > 100 µM (inactive) | > 100 µM (inactive) | > 100 µM (inactive) | 35.6 µM (inactive) | 69.3 µM (inactive) | > 100 µM (inactive) |
| CCCN(CCC)C(=S)N/N=C(/C)c1ccccc1O | 3.2 µM (inactive) | 10.2 µM (inactive) | 4.43 µM (inactive) | 10.3 µM (inactive) | 3.46 µM (inactive) | 3.42 µM (inactive) | 4.11 µM (inactive) | 2.51 µM (inactive) | – | 4.98 µM (inactive) | 14.3 µM (inactive) | 3.48 | 12.1 µM (inactive) | 6.31 µM (inactive) | 5.64 µM (inactive) | 4.25 µM (inactive) | 1.57 µM (inactive) | 2.96 µM (inactive) | 1.19 µM (inactive) | 4.06 µM (inactive) |
| CC(NC(=O)C(NC(=O)OC(C)(C)C)C(C)C)C(=O)N1CCCC1C(=O)NCC(=O)NC(C(=O)NCC(=O)OCc1ccccc1)C(C)C (stereo not drawn) (Boc-VAPGVG-OBn; configuration not given here) | > 100 µM (inactive) | > 100 µM (inactive) | 62.1 µM (inactive) | > 100 µM (inactive) | > 100 µM (inactive) | > 100 µM (inactive) | > 100 µM (inactive) | > 100 µM (inactive) | – | – | > 100 µM (inactive) | > 100 | > 100 µM (inactive) | > 100 µM (inactive) | – | > 100 µM (inactive) | > 100 µM (inactive) | > 100 µM (inactive) | > 100 µM (inactive) | > 100 µM (inactive) |
| CC(=O)OCC1OC(Nc2ccc3nc(C)n(-c4ccccc4)c(=O)c3c2)C(OC(C)=O)C(OC(C)=O)C1OC(C)=O (stereo not drawn) | > 50 µM (inactive) | – | > 50 µM (inactive) | > 50 µM (inactive) | 42.8 µM (inactive) | > 50 µM (inactive) | > 50 µM (inactive) | > 50 µM (inactive) | > 50 µM (inactive) | > 50 µM (inactive) | > 50 µM (inactive) | > 50 | > 50 µM (inactive) | > 50 µM (inactive) | – | > 50 µM (inactive) | > 50 µM (inactive) | – | > 50 µM (inactive) | – |
| COc1ccc2c(c1)N=C(N)n1c(nc3ccccc31)S2 | 68.9 µM (inactive) | 30.5 µM (inactive) | 16.1 µM (inactive) | 48.9 µM (inactive) | 15.9 µM (inactive) | – | 12.2 µM (inactive) | 22.2 µM (inactive) | 45.8 µM (inactive) | 15.5 µM (inactive) | 32.1 µM (inactive) | 25.1 | 10.4 µM (inactive) | – | 30 µM (inactive) | 57.8 µM (inactive) | 19.2 µM (inactive) | 2.99 µM (inactive) | 12.2 µM (inactive) | 34.6 µM (inactive) |
| COc1ccc(CCN2C(=O)C(=O)C(C(=O)c3ccccc3)C2c2ccccc2)cc1OC (stereo not drawn) | > 100 µM (inactive) | > 100 µM (inactive) | > 100 µM (inactive) | > 100 µM (inactive) | 86.7 µM (inactive) | > 100 µM (inactive) | > 100 µM (inactive) | > 100 µM (inactive) | – | > 100 µM (inactive) | > 100 µM (inactive) | 60.5 | > 100 µM (inactive) | > 100 µM (inactive) | > 100 µM (inactive) | > 100 µM (inactive) | 58.6 µM (inactive) | 56.5 µM (inactive) | > 100 µM (inactive) | > 100 µM (inactive) |
| N#CC12C(=O)N3C(=NC(c4ccccc4)NC3c3ccccc3)C1(C#N)C(c1ccccc1)NC1=C2CCC1 (stereo not drawn) | > 100 µM (inactive) | > 100 µM (inactive) | > 100 µM (inactive) | > 100 µM (inactive) | > 100 µM (inactive) | > 100 µM (inactive) | > 100 µM (inactive) | > 100 µM (inactive) | > 100 µM (inactive) | > 100 µM (inactive) | > 100 µM (inactive) | > 100 | > 100 µM (inactive) | > 100 µM (inactive) | > 100 µM (inactive) | > 100 µM (inactive) | > 100 µM (inactive) | > 100 µM (inactive) | > 100 µM (inactive) | – |
| N#Cc1c(N)c(-c2ccc(Cl)cc2)c(F)c2ccccc12 | > 100 µM (inactive) | > 100 µM (inactive) | > 100 µM (inactive) | > 100 µM (inactive) | 94.2 µM (inactive) | > 100 µM (inactive) | 3.2 µM (inactive) | > 100 µM (inactive) | > 100 µM (inactive) | > 100 µM (inactive) | > 100 µM (inactive) | > 100 | > 100 µM (inactive) | 7 µM (inactive) | > 100 µM (inactive) | > 100 µM (inactive) | > 100 µM (inactive) | – | > 100 µM (inactive) | > 100 µM (inactive) |
| NCC(O)CN.Oc1c(Cl)c(Cl)c(Cl)c(Cl)c1Cl | 17.5 µM (inactive) | 21.6 µM (inactive) | 13.4 µM (inactive) | 17.9 µM (inactive) | 17.3 µM (inactive) | 20.2 µM (inactive) | 16.5 µM (inactive) | 13.5 µM (inactive) | 18 µM (inactive) | 20.2 µM (inactive) | 17.8 µM (inactive) | 18.2 | 16.9 µM (inactive) | 14.8 µM (inactive) | 18.7 µM (inactive) | 16.2 µM (inactive) | 18.1 µM (inactive) | – | 24.6 µM (inactive) | 24.4 µM (inactive) |
| C=CCOn1c(C=C)nc2ccc(C)cc21 | 18 µM (inactive) | 35.2 µM (inactive) | 26.2 µM (inactive) | 18.5 µM (inactive) | 12.8 µM (inactive) | 23.6 µM (inactive) | 13.6 µM (inactive) | 16 µM (inactive) | 20.2 µM (inactive) | 17.3 µM (inactive) | 17.1 µM (inactive) | 17 | 19.8 µM (inactive) | 19.4 µM (inactive) | 22.7 µM (inactive) | 17.9 µM (inactive) | 25.9 µM (inactive) | 2.44 µM (inactive) | 15.5 µM (inactive) | – |
